{"source": "patent US10632087B2", "about": "“Famciclovir and meloxicam combination therapy for functional somatic syndromes” (INNOVATIVE MED CONCEPTS, LLC., priority 2012, dated 2020)", "origin": "cited, not measured here", "system": "fibromyalgia patients", "conditions": "valacyclovir alone; not recommended as therapy for fibromyalgia"}
{"smiles": "CC(C)[C@H](N)C(=O)OCCOCn1cnc2c(=O)[nH]c(N)nc21", "note": "[valacyclovir]", "values": [{"measurement": "treatment of fibromyalgia patients", "value": "not successful"}]}
